Experimental data reported in US8828942B2, “Means for treating synucleinopathies” (Affiris AG, priority 2009, dated 2014).
Entries after “also recorded” stand apart in the source; their conditions may differ.

Tests used:
[1] = system: monoclonal antibody 12-9-9; experiment: In vitro binding assay (ELISA) with monoclonal antibody 12-9-9; design: species or system mouse; key to Binding: 0: no binding to 12-9-9 detectable in ELISA; 1: weak binding: binding of mimotope weaker compared to the minimal original sequence p5436; 2: strong binding: binding of mimotope similar to the minimal original sequence p5436; settings: for Binding: binding capacity to 12-9-9 in ELISA, peptide-BSA coated (1 μM), compared with p5436; for detection/binding by monoclonal antibody 12-9-9 in ELISA: result in words
From the text: A monoclonal antibody derived from the fusion “AFFiRiS 6”: Balb/c mice (Charles River) were immunized with original alpha-synuclein epitope LGKNEEGAPQ-C (SEQ ID NO:3) coupled to BTG (bovine thyroglobuline) and CFA (complete Freund's adjuvant; first injection) as well as IFA (incomplete Freund's adjuvant; 3 booster injections) as adjuvant. LGKNEEGAPQ-peptide-specific (SEQ ID NO: 203) antibody-producing hybridomas are detected by ELISA (LGKNEEGAPQC-peptide-coated (SEQ ID NO: 3)ELISA plates). Human alpha-synuclein (recombinant protein, p4446) is used as positive control peptide: hybridomas recognizing the recombinant protein immobilized on ELISA plates are included because they are binding both peptide and full length alpha-synuclein specifically. […] The Hybridoma clone (12-9-9; IgG1, kappa) was analysed for specific detection of the natural human alpha-synuclein epitope LGKNEEGAPQ. (SEQ ID NO: 203). 12-9-9 recognizes the injected epitope as well as full length alpha-synuclein protein (recombinant protein; obtained from rPeptide, Bogart, Ga., USA) in ELISA (see FIG. 2). […] Thus the minimal required epitope for binding has been defined as KNEEGAP (SEQ ID NO: 139).
Peptides derived from Phage Display as well as N-terminally truncated variants thereof were coupled to BSA and bound to ELISA plates (1 μM) and subsequently incubated with the monoclonal antibody that was used for the screening procedure to analyse binding capacity of identified peptides (see FIG. 4).

[2] = system: monoclonal antibody 12-9-9; experiment: In vitro inhibition assay (ELISA); format: binding, mouse; design: key: 0: no competition of 12-9-9 detectable in ELISA; 1: weak competition: competition of mimotope weaker compared to the minimal original sequence p5436; 2: strong competition: competition of mimotope similar to the minimal original sequence p5436; settings: competition capacity in ELISA, peptide 400 μg/ml to 3 μg/ml, plates coated with p5436 and p4446
Protocol: Different amounts of peptides (concentrations ranging from 400 μg/ml to 3 μg/ml (serial dilutions), derived from Phage Display were incubated with the monoclonal antibody that was used for the screening procedure. Peptides diminishing subsequent binding of the antibody to the original human alpha-synuclein epitope (p5436) and the human alpha-synuclein protein (p4446) coated on ELISA plates were considered as inhibiting in this assay.

[3] = system: recombinant human alpha-synuclein protein; experiment: In vivo testing of mimotopes: serum titer against alpha-synuclein (ELISA); settings: mice immunized with peptide-KLH, alum, OD halfmax
Protocol: (§1) Inhibiting as well as non-inhibiting peptides were coupled to KLH and injected into mice (wildtype C57/B16 or BalbC mice; subcutaneous injection into the flank) together with an appropriate adjuvant (aluminium hydroxide). Animals were vaccinated 3 times in biweekly intervals and sera were taken biweekly as well. Titers to injected peptides as well as to an irrelevant peptide were determined with every serum. Titers against the recombinant human alpha-synuclein protein and recombinant human beta-synuclein were determined starting with Serum 2 respectively. In general sera were analysed by reaction against peptides coupled to Bovine Serum Albumin (BSA) and recombinant full length proteins which were immobilised on ELISA plates. Titers were determined using anti mouse IgG specific antibodies. For examples of immunogenicity against injected peptide and alpha-synuclein see Table 5 and Table 6.
(§2) Female C57/B16 mice or BalbC, 5-6 mice per group, were subcutaneously immunized with 30 μg peptide coupled to KLH. Control groups were injected with PBS or the original epitope. As adjuvant alum was used. The peptides administered were all able to bind to monoclonal antibodies specifically binding aa100-109 of human alpha-synuclein although some of the peptides did inhibit the binding of the original epitope to its parental antibody in vitro only weakly (in an in vitro inhibition assay). The in vitro ELISA assay to determine the antibody titer was performed with sera of single mice (see Tab. 5) after each vaccination in a two week interval. The wells of the ELISA plate were coated with mimotope-BSA conjugates. The positive control was performed by reaction of the parental antibody with the respective mimotope-BSA conjugate. The detection was performed with anti-mouse IgG. Additionally, recombinant proteins were immobilised on ELISA plates and sera reacted accordingly. For all mimotopes tested in C57/B16 mice or BalbC, antibodies reacting to the individual injected peptide could be detected after repeated vaccination. Although not all mice induced higher titer against alpha-synuclein (see tab. 5 for examples).

[4] = In vivo testing of mimotopes: serum titer against injected peptide (ELISA); settings: mice, 30 μg peptide coupled to KLH, alum, s.c.; titer by ELISA as OD halfmax
Protocol: as §1, §2

Binding [1]	Substance	other results
2	ANDEGAPC [p5591, mimotope]	
2	ANEEGAPC [p5437, mimotope]	
2	APSWKGEC [p5556, mimotope]	Competition [2]: 1; class of immunogenicity: a Syn [3]: 0 (peptides inducing no immune response or a very low immune response with OD halfmax around 50 or lower.)
1	ASEEGAPC [p5594, mimotope]	
2	Alpha-synuclein [p4446]	detection/binding by monoclonal antibody 12-9-9 in ELISA [1]: detected; also recorded: retained full binding capacities; detection/binding by monoclonal antibody 12-9-9 in ELISA ([1]; listed as Alpha-Synuclein): detected similarly; detection/binding by monoclonal antibody 12-9-9 in ELISA ([1]; listed as alpha-synuclein protein): recognizes
	Beta-Synuclein [p4447]	detection/binding by monoclonal antibody 12-9-9 in ELISA [1]: not detected; detection/binding by monoclonal antibody 12-9-9 in ELISA ([1]; listed as beta-synuclein protein): does not detect
2	CKNEEGAP [p5435, reference compound]	Competition [2]: 1
2	CTPSWKGE [p5560, mimotope]	
2	DPSFALEC [p5465, mimotope]	class of immunogenicity: a Syn [3]: 0 (peptides inducing no immune response or a very low immune response with OD halfmax around 50 or lower.)
	EEGAPQC [p5400, reference compound]	detection/binding by monoclonal antibody 12-9-9 in ELISA [1]: lost binding
	EGAPQC [p5401, reference compound]	detection/binding by monoclonal antibody 12-9-9 in ELISA [1]: lost binding
2	GKNEEGAPQC [p5397, reference compound]	Competition [2]: 2; detection/binding by monoclonal antibody 12-9-9 in ELISA [1]: retained full binding capacities
1	HNAEGAPC [p5598, mimotope]	
2	HNDEGAPC [p5596, mimotope]	
2	HNEEGAPC [p5444, mimotope]	detection/binding by monoclonal antibody 12-9-9 in ELISA [1]: detected much weaker than the human epitope
1	HSAEGAPC [p5604, mimotope]	
1	HSDEGAPC [p5608, mimotope]	
1	HSEEGAPC [p5593, mimotope]	
1	KAEEGAPC [p5438, mimotope]	

Binding [1]	Substance	other results
2	KNDDGAPC [p5449, mimotope]	Competition [2]: 1
	KNEAGAPC [p5440, mimotope]	detection/binding by monoclonal antibody 12-9-9 in ELISA [1]: not detected
2	KNEDGAPC [p5446, mimotope]	Competition [2]: 1
2	KNEEGAPQC [p5398, reference compound]	Competition [2]: 2; detection/binding by monoclonal antibody 12-9-9 in ELISA [1]: retained full binding capacities
2	KPSFKNEC [p5461, mimotope]	class of immunogenicity: a Syn [3]: 0 (peptides inducing no immune response or a very low immune response with OD halfmax around 50 or lower.)
2	KQEEGAPC [p5447, mimotope]	
2	KSAEGAPC [p5599, mimotope]	
2	KSDEGAPC [p5600, mimotope]	Competition [2]: 1; class of immunogenicity: a Syn [3]: 1 (peptides inducing an immune response with OD halfmax between 1000 and 51.)
2	KSEDGAPC [p5601, mimotope]	
2	KSEEGAPC [p5448, mimotope]	Competition [2]: 1
	LGKNEC [p5406, reference compound]	detection/binding by monoclonal antibody 12-9-9 in ELISA [1]: lost binding
	LGKNEEC [p5405, reference compound]	detection/binding by monoclonal antibody 12-9-9 in ELISA [1]: lost binding
	LGKNEEGAC [p5403, reference compound]	detection/binding by monoclonal antibody 12-9-9 in ELISA [1]: lost binding
2	LGKNEEGAPQC [p4453, reference compound]	detection/binding by monoclonal antibody 12-9-9 in ELISA [1]: detected; also recorded: retained full binding capacities
	LGKNEEGC [p5404, reference compound]	detection/binding by monoclonal antibody 12-9-9 in ELISA [1]: lost binding
2	MGKGEEGYPQC [p4454, reference compound]	class of immunogenicity: a Syn [3]: 1 (peptides inducing an immune response with OD halfmax between 1000 and 51.); Titer in animals OD halfmax injected pep. [4]: 17000
	NEEGAPQC [p5399, reference compound]	detection/binding by monoclonal antibody 12-9-9 in ELISA [1]: lost binding
1	QASFAMEC [p5547, mimotope]	
1	QASSKLDC [p5549, mimotope]	

Binding [1]	Substance	other results
2	QPSFAMEC [p5462, mimotope]	class of immunogenicity: a Syn [3]: 0 (peptides inducing no immune response or a very low immune response with OD halfmax around 50 or lower.)
2	QPSSKLDC [p5468, mimotope]	class of immunogenicity: a Syn [3]: 0 (peptides inducing no immune response or a very low immune response with OD halfmax around 50 or lower.)
2	RNAEGAPC [p5597, mimotope]	Competition [2]: 1; class of immunogenicity: a Syn [3]: 1 (peptides inducing an immune response with OD halfmax between 1000 and 51.)
2	RNDEGAPC [p5587, mimotope]	Competition [2]: 2; class of immunogenicity: a Syn [3]: 1 (peptides inducing an immune response with OD halfmax between 1000 and 51.)
2	RNEDGAPC [p5588, mimotope]	Competition [2]: 1
2	RQDDGAPC [p5610, mimotope]	
2	RQDEGAPC [p5602, mimotope]	Competition [2]: 1
2	RQEDGAPC [p5603, mimotope]	Competition [2]: 1
2	RQEEGAPC [p5589, mimotope]	
2	RSAEGAPC [p5605, mimotope]	
2	RSDEGAPC [p5606, mimotope]	
2	RSEDGAPC [p5607, mimotope]	
2	RSEEGAPC [p5590, mimotope]	Competition [2]: 1; class of immunogenicity: a Syn [3]: 1 (peptides inducing an immune response with OD halfmax between 1000 and 51.)
2	SPSFKQEC [p5463, mimotope]	class of immunogenicity: a Syn [3]: 0 (peptides inducing no immune response or a very low immune response with OD halfmax around 50 or lower.)
2	TASWKGEC [p5548, mimotope]	Competition [2]: 1
1	TPAWKGEC [p5551, mimotope]	
	TPSAKGEC [p5557, mimotope]	Competition [2]: 1
2	TPSWAGEC [p5558, mimotope]	
2	TPSWKGEC [p5464, mimotope]	Competition [2]: 1; class of immunogenicity: a Syn [3]: 0 (peptides inducing no immune response or a very low immune response with OD halfmax around 50 or lower.)

Substance	Binding [1]	other results
LPSFRLEC [p5466, mimotope]	1	class of immunogenicity: a Syn [3]: 0 (peptides inducing no immune response or a very low immune response with OD halfmax around 50 or lower.)
